Patent US20260174761A1 (priority 2022, published 2026)

Legend:
[1] = high concentrations (above 100 μM); cited from earlier work
IBD mice = test: DSS-induced inflammatory bowel disease (IBD) mouse model: colon IL-6 by ELISA and colon length; assay type: in vivo, C57BL6 mice; conditions: for reduction of IL-6 levels within the colon: male mice, 2.5% DSS for 5 days, treatment from day 4 for four days, 2-CL-MGV-1 15 mg/kg, dexamethasone 0.75 mg/kg, vs DSS without treatment
Experimental: FIG. 1 includes a bar graph showing that interleukin (IL) 6 levels in the gut of IBD mice are reduced in response to 2-CL-MGV-1 treatment. Nine-weeks-old C57BL6 male mice were given 2.5% dextran sulfate sodium (DSS) in drinking water for 5 days. Naive mice were given water only. The treatments: 2-CL-MGV-1 and dexamethasone were given on day 4 for four days. […] ANOVA followed by Bonferroni's post-hoc test was performed. ***p<0.00001 compared to control.
FIG. 2 includes a bar graph showing that the treatment with 2-CL-MGV-1 reduces the shortening of IBD mice colon. Nine-weeks-old C57BL6 male mice were given 2.5% DSS in drinking water for 5 days. Naive mice were given water only. The treatments: 2-CL-MGV-1 and dexamethasone were given on day 4 for four days.
FIG. 4 includes a vertical bar graph showing that IL 6 levels in the gut of IBD mice are reduced in response to 2-CL-MGV-1 treatment. C57BL female mice aged of 8-10 weeks were given 2.5% DSS in their drinking water for 7 days. Vehicle group mice were given water only and DMSO injections on the 4th day for 4 days. DSS group received DSS with DMSO (as a vehicle) that were given on the 4th day for 4 days. The treatment group received 2-CL-MGV-1 (15 mg/kg) and DMSO as a vehicle were given on the 4th day for 4 days. […] ANOVA followed by Bonferroni's post-hoc test was performed. ***p<0.001 compared to control.
FIG. 5 includes a vertical bar graph showing that the treatment with 2-CL-MGV-1 reduces the shortening of IBD mice colon. C57BL female mice aged of 8-10 weeks were given 2.5% DSS in their drinking water for 7 days. Vehicle group mice were given water only and DMSO injections on the 4th day for 4 days. DSS group received DSS with DMSO (as a vehicle) that were given on the 4th day for 4 days. The treatment group received 2-CL-MGV-1 (15 mg/kg) and DMSO (as a vehicle) that were given on the 4th day for 4 days. […] ANOVA followed by Bonferroni's post-hoc test was performed. ***p<0.001 compared to control.
C57BL mice 8-10 weeks old were given 2.5% DSS in their drinking water for 7 days. On the fourth day, the mice were injected subcutaneously (S.C) with either DMSO or 2-CL-MGV-1 (30 μl) for four days. The mice were sacrificed on the eighth day of the experiment.
In the IBD experiment, 2-Cl-MGV-1 was injected subcutaneously for four days, three days after inflammation induction in the colon, using dextran sulfate sodium (DSS). On the following day, the mice were sacrificed, and the colon was removed. Colon lengths were measured, and cytokine levels were detected by ELISA.

[2] = system: human retinal pigment epithelium (RPE)-19 cell line; test: In vitro AMD model: RPE-19 cells stimulated with TNF-α and INF-γ (TI), secreted pro-inflammatory mediators; assay type: cell-based; conditions: RPE cells pretreated with compound, TNF-α and INF-γ stimulation
Description: TNF-α and INF-γ stimulation (TI).
Next, the effect of 2-CL-MGV-1 was examined in an in vitro model of age-related macular degeneration (AMD). Human retinal pigment epithelium (RPE)-19 cell line stimulated with TNF-α and INF-γ (TI) are known to mimic AMD by complement activation and increased levels of circulating cytokines.

[3] = system: lipopolysaccharide (LPS)-induced microglial activation; conditions: recent studies of the inventors; cited from earlier work
[4] = female mice, 2.5% DSS for 7 days, 2-CL-MGV-1 15 mg/kg s.c. from 4th day for 4 days, vs DSS+vehicle (DMSO)

SMILES	lethal effects [1]	reduction of IL-6 levels within the colon (IBD mice) [%]	decrease in IL-6 content in the colon (IBD mice; [4]) [%]	increase in colon length (IBD mice; [4]) [%]	colon shrinkage effect compared to dexamethasone (IBD mice; male DSS mice, 2-CL-MGV-1 15 mg/kg vs dexamethasone 0.75 mg/kg)	colon shrinkage (shortening) effect (IBD mice; male and female DSS mice, 2-CL-MGV-1 15 mg/kg for four days)	effect on IL-6 secretion relative to dexamethasone (DEX) treatment (IBD mice; murine IBD model, compared to DEX)	TI-induced secretion of IL-8 [2]	TI-induced secretion of complement C3 [2]	TI-induced secretion of complement C5 [2]	TI-induced secretion of reactive oxygen species (ROS) [2]	LPS-induced microglial activation [3]
CCC(C)N(C)C(=O)c1cc2ccccc2c(-c2ccccc2Cl)n1 (centres unmarked) [PK 11195, reference compound]	pronounced lethal effects											
C[C@@H]1C[C@H]2[C@@H]3CCC4=CC(=O)C=C[C@]4(C)[C@@]3(F)[C@@H](O)C[C@]2(C)[C@@]1(O)C(=O)CO [dexamethasone, reference compound]		20										
CN(C)C(=O)Oc1nc(-c2ccccc2Cl)nc2ccccc12 [2-Cl-MGV-1, 2-chlorophenyl quinazolin-4-yl dimethylcarbamate]	very few lethal effects	75	64	26	significantly more pronounced	alleviated the colon shrinkage effect	about 75%	significantly reduced	significantly reduced	significantly reduced	significantly reduced	inhibit
